ChEMBL document CHEMBL4699579, “A Peptidyl Inhibitor that Blocks Calcineurin-NFAT Interaction and Prevents Acute Lung Injury” (J Med Chem, 2020)
Activity calls are given as the source filed them. The rule behind the calls is not given here. Positions of bridges follow the written chain, without caps; N, C: chain ends. Non-standard residues stand in square brackets, D forms with d. Residues, ends and D or L forms follow the SMILES beside them. Chains are numbered I, II in the order given. *: point of attachment. Benzoyl(2,3-Cl2) = O=C(c1cccc(Cl)c1Cl)*; 2Nal = N[C@@H](Cc1ccc2ccccc2c1)C(=O)O; Tle = CC(C)(C)[C@H](N)C(=O)O; AEEA = NCCOCCOCC(=O)O

Tests used:
Macrophage [1] = assay: Inhibition of LPS-induced TNFalpha production in mouse lung macrophages at 10 uM pre-incubated 4 hrs before LPS stimulation for 8 hrs by ELISA; assay type: functional, cell-based; conditions: time 12.0 hrs
Macrophage [2] = assay: Inhibition of LPS-induced IL6 production in mouse lung macrophages at 10 uM pre-incubated 4 hrs before LPS stimulation for 8 hrs by ELISA; assay type: functional, cell-based; conditions: time 12.0 hrs
Mus musculus [3] = assay: Anti-inflammatory activity in BALB/c mouse model of LPS-induced ALI assessed as reduction in LPS-induced TNFalpha in BALF at 5 mg/kg dosed via intranasal insuffIation pre-treated 2 hrs before LPS stimulation for 16 hrs; assay type: functional, organism-based; conditions: dose mg/kg 5-10, time 18.0 hrs
Mus musculus [4] = assay: Anti-inflammatory activity in BALB/c mouse model of LPS-induced ALI assessed as reduction in LPS-induced IL6 in BALF at 5 mg/kg dosed via intranasal insuffIation pre-treated 2 hrs before LPS stimulation for 16 hrs; assay type: functional, organism-based; conditions: dose mg/kg 5-10, time 18.0 hrs
Mus musculus [5] = assay: Anti-inflammatory activity in BALB/c mouse model of LPS-induced ALI assessed as reduction in LPS-induced extravasated BALF protein in BALF at 5 mg/kg dosed via intranasal insuffIation pre-treated 2 hrs before LPS stimulation for 16 hrs; assay type: functional, organism-based; conditions: dose mg/kg 5-10, time 18.0 hrs
Mus musculus [6] = assay: Anti-inflammatory activity in BALB/c mouse model of LPS-induced ALI assessed as reduction in LPS-induced TNFalpha in plasma at 5 mg/kg dosed via intranasal insuffIation pre-treated 2 hrs before LPS stimulation for 16 hrs; assay type: functional, organism-based; conditions: dose mg/kg 5-10, time 18.0 hrs
Mus musculus [7] = assay: Anti-inflammatory activity in BALB/c mouse model of LPS-induced ALI assessed as reduction in LPS-induced IL6 in plasma at 5 mg/kg dosed via intranasal insuffIation pre-treated 2 hrs before LPS stimulation for 16 hrs; assay type: functional, organism-based; conditions: dose mg/kg 5-10, time 18.0 hrs
Mus musculus [8] = assay: Anti-inflammatory activity in BALB/c mouse model of LPS-induced ALI assessed as reduction in lung wet-to-dry ratios at 5 mg/kg dosed via intranasal insuffIation pre-treated 2 hrs before LPS stimulation for 16 hrs; assay type: functional, organism-based; conditions: dose mg/kg 5-10, time 18.0 hrs
Mus musculus [9] = assay: Anti-inflammatory activity in BALB/c mouse model of LPS-induced ALI assessed as reduction in number of neutrophils BALF at 5 mg/kg dosed via intranasal insuffIation pre-treated 2 hrs before LPS stimulation for 16 hrs; assay type: functional, organism-based; conditions: dose mg/kg 5-10, time 18.0 hrs
Mus musculus [10] = assay: Anti-inflammatory activity in BALB/c mouse model of LPS-induced ALI assessed as reduction in LPS-induced TNFalpha in BALF at 10 mg/kg dosed via intranasal insuffIation pre-treated 2 hrs before LPS stimulation for 16 hrs; assay type: functional, organism-based; conditions: time 18.0 hrs
Mus musculus [11] = assay: Anti-inflammatory activity in BALB/c mouse model of LPS-induced ALI assessed as reduction in LPS-induced IL6 in BALF at 10 mg/kg dosed via intranasal insuffIation pre-treated 2 hrs before LPS stimulation for 16 hrs; assay type: functional, organism-based; conditions: time 18.0 hrs
Mus musculus [12] = assay: Anti-inflammatory activity in BALB/c mouse model of LPS-induced ALI assessed as reduction in LPS-induced extravasated BALF protein in BALF at 10 mg/kg dosed via intranasal insuffIation pre-treated 2 hrs before LPS stimulation for 16 hrs; assay type: functional, organism-based; conditions: time 18.0 hrs
Mus musculus [13] = assay: Anti-inflammatory activity in BALB/c mouse model of LPS-induced ALI assessed as reduction in LPS-induced TNFalpha in plasma at 10 mg/kg dosed via intranasal insuffIation pre-treated 2 hrs before LPS stimulation for 16 hrs; assay type: functional, organism-based; conditions: time 18.0 hrs
Mus musculus [14] = assay: Anti-inflammatory activity in BALB/c mouse model of LPS-induced ALI assessed as reduction in LPS-induced IL6 in plasma at 10 mg/kg dosed via intranasal insuffIation pre-treated 2 hrs before LPS stimulation for 16 hrs; assay type: functional, organism-based; conditions: time 18.0 hrs
Mus musculus [15] = assay: Anti-inflammatory activity in BALB/c mouse model of LPS-induced ALI assessed as reduction in lung wet-to-dry ratios at 10 mg/kg dosed via intranasal insuffIation pre-treated 2 hrs before LPS stimulation for 16 hrs; assay type: functional, organism-based; conditions: time 18.0 hrs
Mus musculus [16] = assay: Anti-inflammatory activity in BALB/c mouse model of LPS-induced ALI assessed as reduction in number of neutrophils BALF at 10 mg/kg dosed via intranasal insuffIation pre-treated 2 hrs before LPS stimulation for 16 hrs; assay type: functional, organism-based; conditions: time 18.0 hrs
Macrophage [17] = assay: Inhibition of calcineurin-NFATc3 interaction in mouse bone marrow-derived macrophages assessed as reduction in LPS-induced NFATc3 nuclear translocation at 1 uM pre-incubated before LPS stimulation for 1 hr using biotinylated compound by immunofluorescence staining assay
Jurkat = assay: Inhibition of Calcineurin in human Jurkat cells; assay type: cell-based
[18] = Half life in human serum; assay type: ADME, cell-free
HeLa = assay: Toxicity in human HeLa cells assessed as reduction in cell viability up to 25 uM incubated for 72 hrs by MTT assay; assay type: cell-based
Macrophage [19] = assay: Inhibition of calcineurin-NFATc3 interaction in mouse lung macrophages assessed as reduction in LPS-induced TNFalpha production at 0.01 to 10 uM pre-incubated 4 hrs before LPS stimulation for 8 hrs by ELISA; assay type: tissue-based; conditions: dose microM 0.01-10, time 12.0 hrs
Macrophage [20] = assay: Inhibition of calcineurin-NFATc3 interaction in mouse lung macrophages assessed as reduction in LPS-induced IL6 production at 0.01 to 10 uM pre-incubated 4 hrs before LPS stimulation for 8 hrs by ELISA; assay type: tissue-based; conditions: dose microM 0.01-10, time 12.0 hrs
[21] = Toxicity in mouse lung macrophages cells assessed as reduction in cell viability up to 25 uM incubated for 72 hrs by MTT assay; assay type: tissue-based; conditions: macrophage
[22] = Drug uptake in cytosol in human HeLa cells assessed as cytosolic delivery efficiency at 5 uM incubated for 2 hrs by floe cytometry relative to control; assay type: ADME, subcellular

Row | SMILES | Activity (Mus musculus [3]) | Activity (Mus musculus [4]) | Activity (Mus musculus [5]) | Activity (Mus musculus [6]) | Activity (Mus musculus [7]) | Activity (Mus musculus [8]) | Activity (Mus musculus [9]) | Activity (Mus musculus [10]) | Activity (Mus musculus [11]) | Activity (Mus musculus [12]) | Activity (Mus musculus [13]) | Activity (Mus musculus [14]) | Activity (Mus musculus [15]) | Activity (Mus musculus [16]) | further results
1 | CC(C)[C@H](NC(=O)[C@H](C)NC(=O)[C@@H](NC(=O)[C@@H]1CCCN1C(=O)[C@H](Cc1cnc[nH]1)NC(=O)[C@@H]1CCCN1C(=O)CNC(=O)COCCOCCNC(=O)CC[C@@H]1NC(=O)[C@@H](CCCNC(=N)N)NC(=O)[C@H](CCCNC(=N)N)NC(=O)[C@@H](CCCNC(=N)N)NC(=O)[C@H](CCCNC(=N)N)NC(=O)[C@H](Cc2ccc3ccccc3c2)NC(=O)[C@@H](Cc2ccccc2)NC1=O)C(C)C)C(=O)N[C@@H](C)C(=O)N[C@@H](C)C(=O)NCC(=O)N1CCC[C@H]1C(=O)N[C@@H](Cc1c[nH]cn1)C(=O)N[C@@H](CCC(=O)O)C(=O)N[C@@H](CCC(=O)O)C(=O)N[C@@H](CCCCN)C(N)=O | inactive | inactive | inactive | inactive | inactive | inactive | inactive | inactive | inactive | inactive | inactive | inactive | inactive | inactive | inhibition (Macrophage [1]): Active; inhibition (Macrophage [2]): Active; inhibition (Macrophage [17]): inactive
2 | CC[C@H](C)[C@H](NC(=O)[C@@H](NC(=O)c1cccc(Cl)c1Cl)C(C)(C)C)C(=O)N[C@H](C(=O)N[C@H](C(=O)N[C@H](C(=O)N[C@@H](CCC(N)=O)C(=O)N[C@@H](Cc1c[nH]cn1)C(=O)N[C@H](CC(C)C)C(=O)N[C@@H](CO)C(=O)NCCOCCOCC(=O)N[C@@H](CCCCNC(=O)CC[C@@H]1NC(=O)[C@@H](CCCNC(=N)N)NC(=O)[C@H](CCCNC(=N)N)NC(=O)[C@@H](CCCNC(=N)N)NC(=O)[C@H](CCCNC(=N)N)NC(=O)[C@H](Cc2ccc3ccccc3c2)NC(=O)[C@@H](Cc2ccccc2)NC1=O)C(N)=O)[C@@H](C)O)[C@@H](C)CC)C(C)(C)O | – | – | – | – | – | – | – | – | – | – | – | – | – | – | inhibition (Jurkat): Active
3 | CC[C@H](C)[C@H](NC(=O)[C@@H](NC(=O)c1cccc(Cl)c1Cl)C(C)(C)C)C(=O)N[C@H](C(=O)N[C@H](C(=O)N[C@H](C(=O)N[C@@H](CCC(N)=O)C(=O)N[C@@H](Cc1c[nH]cn1)C(=O)N[C@H](CC(C)C)C(=O)N[C@@H](CO)C(=O)NCCOCCOCC(=O)N[C@@H](CCCCNC(=O)CC[C@@H]1NC(=O)[C@@H](CCCNC(=N)N)NC(=O)[C@H](CCCNC(=N)N)NC(=O)[C@@H](CCCNC(=N)N)NC(=O)[C@H](CCCNC(=N)N)NC(=O)[C@H](Cc2ccc3ccccc3c2)NC(=O)[C@@H](Cc2ccccc2)NC1=O)C(N)=O)[C@@H](C)O)[C@@H](C)CC)C(C)(C)C (I: {Benzoyl(2,3-Cl2)}-[Tle]I[Tle]ITQH[dL]S[AEEA]K-NH2 / II: cyclo([2Nal]R[dR]R[dR]E[dF]); amide I:11-II:6) | inactive | inactive | inactive | inactive | inactive | inactive | inactive | inactive | inactive | inactive | inactive | inactive | inactive | inactive | half-life [18]: > 24 h; Activity (HeLa): Non-Toxic; inhibition (Macrophage [19]): inactive; inhibition (Macrophage [20]): inactive; Activity [21]: Non-Toxic
4 | N=C(N)NCCC[C@@H]1NC(=O)[C@H](Cc2ccc3ccccc3c2)NC(=O)[C@@H](Cc2ccccc2)NC(=O)[C@H](CCC(N)=O)NC(=O)[C@@H](CCCNC(=N)N)NC(=O)[C@H](CCCNC(=N)N)NC(=O)[C@@H](CCCNC(=N)N)NC1=O (cyclo([2Nal]R[dR]R[dR]Q[dF])) | – | – | – | – | – | – | – | – | – | – | – | – | – | – | Drug uptake [22]: 62%
